What was measured:
Format in all cases: cell-based
PC-3 cells = test: Primary 3D screen in Matrigel ECM, morphometric image analysis (AMIDA) of invasion, growth and cell death; conditions: PC-3 in 3D Matrigel; for anti-invasive effects in 3D culture (in words): 0.03-1 μM
Experimental: Three standard of care compounds widely used against PrCa were added as controls; namely, the androgen receptor antagonist enzalutamide (MDV3100), the C17α-hydroxylase/C17,20-lyase inhibitor abiraterone (Zytiga), and the classic mitotic inhibitor paclitaxel. Treatments started at day 4, when well-differentiated round acini were established.
The live 3D cell cultures were then stained with reactive dyes Calcein AM to detect living, and ethidium homodimer to detect dead cells. Images (Fig 4A) were acquired with confocal microscope and image data were analyzed with the AMIDA software. The principles of morphometric image analysis are briefly outlined in S2 Fig.
Fig 4 Primary 3D screen. PC-3 cells were cultured in 3D Matrigel ECM for 4 days and treated for 6 days with 25 betulin derivatives (from 2D high throughput screens), DMSO/vehicle control, and three reference compounds. A) Representative maximum intensity projections of confocal microscope stack images for selected compound treatments at 300 nM concentration (5× objective, scale 100 μm). B) Three graphs showing the relative impact on three morphometric parameters for 7 betulin derivatives, DMSO control, and one control compound (paclitaxel). […] C) Hierarchical clustering was done using three morphological parameters derived from PC3 organoids: spheroid size (area), complexity and the number of dead cells. D) Wound healing curves of the two betulin derivatives 4 and 20, highlighting the 50% cut-off level (orange dashed line).
Next, statistical analyses were performed to interpret the complex image data (Fig 4B and 4C). For simplicity, we focused on only three, basic morphologic parameters from the multiparametric AMIDA readout (Fig 4B): 1) Area (indicating growth of organoids), 2) structural Complexity (as a measure of the intensity of invasion), and 3) Relative Area of dead cells within organoids (red signal as a measure of cytoxicity or apoptosis). Area (Size of organoids; Fig 4B, upper panel) was measured as the number of pixels within a segmented structure. […] Shape Complexity (Fig 4B, middle panel) was obtained using the structure size (area) and perimeter (number of border pixels). The more regular the shape of an organoid, the closer it is to a perfect circle, thus minimizing the perimeter relative to object size. […] Deviations from this average (residuals) were interpreted as a measure for the shape complexity of organoids. As a logical lower limit for this measure (represented by a perfect circle), we adjusted the intercept (height level) of the regression line to render all returned residuals as positive numbers.
All 3D cultures were done in growth factor-free Matrigel Basement-membrane Matrix (Corning Inc., New York, NY, USA) using 96-well Angiogenesis μ-plates (ibidi GmbH, Munich, Germany) as described before.[38] “Sandwich” assays in short: bottom wells of cooled Angiogenesis plates were filled with 10 μL 4 mg/mL Matrigel, centrifuged for 20 min 200 g and incubated at 37°C temperature for approximately 30–60 min or until the ECM had polymerized. 1,000–1,500 cells were mixed in 2 mg/mL ECM-medium, and 20 μL of cell suspension was added in each well. The plates were centrifuged for 10 min at 100 g, or until the cells had settled on top of the lower ECM. Finally, the outer wells and side reservoirs were filled with water for humidification, and the culture plates placed into the incubator for 3–4 h or overnight. The following day, 60 μL of cell culture medium were added; refreshed every third day by carefully aspirating the medium.

[1] = system: PC-3, LNCaP, LAPC-4, Ep156T; test: Primary and secondary 3D screens combined across the cell line panel; conditions: cell lines other than PC-3, 3D, 300 nM or lower (except compound 15)
Experimental: Fig 5 Secondary 3D screens. Experimental betulin derivatives and control compounds were tested across a panel of prostate cancer lines (LNCaP, LAPC-4) and non-transformed, prostate epithelial cells (EP156T) in 3D culture. A) The dendrogram is based on three main morphological parameters and combines all data from primary and secondary 3D screens. Effective compound treatments are indicated in red and yellow, yellow being the most invasion-specific. B) Boxplots showing the impact of selected compounds on spheroid size (Area). Data scaling: as described in Fig 4 C) Effects of all betulin derivatives and control compounds on cell death (number of dead cells).
In order to assist functional categorization of our betulin derivatives, we combined all data into a single dendrogram, shown in Fig 5A. In addition, multiparametric representation of all experimental data as a single heatmap is highly informative (S5 Fig) and a potent way to illustrate the effects of compounds on growth, structural complexity and cell death across multiple cell lines. […] However, at lower concentrations, these compounds may act as potent and specific inhibitors of cell invasion and motility.
Supplementary file pone.0126111.s005.eps: S5 Fig Primary and secondary screens. […] The main read-outs (Area = Size, Complexity = Invasiveness, Red = Cell death) are shown in their own columns. Data scaling: DMSO control has been given a value 0 whereas paclitaxel control is valued -100 or 100 depending on the read-out. Color key is located in the upper right corner. (EPS) Click here for additional data file.
Supplementary file pone.0126111.s006.tif: S6 Fig Confocal images from primary and secondary betulin screens. Viable cells have been stained with calcein AM (green) and dead cells with ethidium homodimer-2 (red) (5× objective, maximum intensity projections, scale bar = 100 μm). (TIF) Click here for additional data file.

LAPC-4 = test: Secondary 3D screen (spheroid size, complexity, cell death); conditions: yellow and red clusters
From the text: (§1) Next, the 25 selected betulin derivatives depicted in Figs 1–3 including control compounds were again thoroughly tested across the same panel of prostate-derived cell lines already used in the preliminary, 2D high-throughput screen. The resulting dendrograms were either generated separately for each cell line (S4 Fig), combined into a single dendrogram (Fig 5A), or shown as reduced organoid sizes (area; Fig 5B).
(§2) Fig 5 Secondary 3D screens. Experimental betulin derivatives and control compounds were tested across a panel of prostate cancer lines (LNCaP, LAPC-4) and non-transformed, prostate epithelial cells (EP156T) in 3D culture. A) The dendrogram is based on three main morphological parameters and combines all data from primary and secondary 3D screens. […] B) Boxplots showing the impact of selected compounds on spheroid size (Area). Data scaling: as described in Fig 4 C) Effects of all betulin derivatives and control compounds on cell death (number of dead cells).
(§3) All 3D cultures were done in growth factor-free Matrigel Basement-membrane Matrix (Corning Inc., New York, NY, USA) using 96-well Angiogenesis μ-plates (ibidi GmbH, Munich, Germany) as described before.[38] “Sandwich” assays in short: bottom wells of cooled Angiogenesis plates were filled with 10 μL 4 mg/mL Matrigel, centrifuged for 20 min 200 g and incubated at 37°C temperature for approximately 30–60 min or until the ECM had polymerized. 1,000–1,500 cells were mixed in 2 mg/mL ECM-medium, and 20 μL of cell suspension was added in each well. The plates were centrifuged for 10 min at 100 g, or until the cells had settled on top of the lower ECM. Finally, the outer wells and side reservoirs were filled with water for humidification, and the culture plates placed into the incubator for 3–4 h or overnight. The following day, 60 μL of cell culture medium were added; refreshed every third day by carefully aspirating the medium. This “sandwich” setting allows almost unifocal alignment of cells and 3D structures in a single optical plane, thus reducing the time required for confocal stack imaging.
(§4) All control compounds were purchased from Selleck (Munich, Germany), except for staurosporine (Sigma-Aldrich, St. Louis, MO, USA) and Y-27632 (Tocris, Bristol, UK) and dissolved in dimethyl sulfoxide (DMSO) as a vehicle at 10 mM. In the primary and secondary 3D screens, experimental and control compound exposures were performed in triplicates. Four concentrations for each compound were applied (0.03, 0.1, 0.3 and 1 μM). Compound treatments were initiated four days after cell embedding, and continued for six days after which spheroids were stained and imaged.
(§5) Supplementary file pone.0126111.s004.eps: S4 Fig Secondary screens. Dendrograms for A) LNCaP, B) LAPC-4, and C) Ep156T betulin screens in 3D culture have been constructed using three main read-outs: spheroid size, spheroid complexity, and cell death. […] (EPS) Click here for additional data file.

[2] = system: actin cytoskeleton of PC-3, LNCaP and Ep156T spheroids; test: F-actin cytoskeleton (phalloidin staining) in 3D spheroids; conditions: after 48 hours of exposure; seen in Ep156T acini and PC-3 spheroids, not LNCaP
From the text: […] […] For phenotypic comparisons, we tested a panel of reference compounds targeting Akt, Rac, ROCK, Src, and other pathways, broadly linked to the actin cytoskeleton.
Fig 8 3D morphologies of prostate spheroids, exposed to selected betulin derivatives and captured with a confocal microscope. Actin cytoskeleton (filamentous or F-actin) is stained green (phalloidin), nuclei with a red dye (confocal microscope images, 40× objective, scale bar shown for each panel on the right lower corner).

Ep156T cell line = test: Secondary 3D screen (spheroid size, complexity, cell death); conditions: at the highest concentration
From the text: as §1, §2, §3, §4, §5

LNCaP organoids = test: as above; conditions: dendrogram clusters
From the text: as §1, §2, §3, §4, §5

CC(C)[C@@H]1CC[C@]2(C(=O)O)CC[C@]3(C)C(CCC4[C@@]5(C)CCC(=O)C(C)(C)C5CC[C@]43C)C12 (stereo partly drawn) [Compound 3]
concentration at which anti-invasive effects are seen in 3D (PC-3 cells; 6 days treatment): ≤ 300 nM
anti-invasive effects in 3D culture (in words) (PC-3 cells; 6 days treatment): one of the most potent anti-invasive, growth inhibitory agents
effects on the other cell lines at anti-invasive concentrations [1]: no noticeable effects on the other cell lines
efficacy in 3D LAPC-4 culture (dendrogram clusters) (LAPC-4): most active

C=C(C)[C@@H]1CC[C@]2(C(=O)O)CC[C@]3(C)C(CCC4[C@@]5(C)Cc6nccnc6C(C)(C)C5CC[C@]43C)C12 (stereo partly drawn) [Compound 15]
concentration with strong anti-invasive effects in 3D (PC-3 cells; 6 days treatment): 1.0 µM
anti-invasive effects in 3D culture (in words) (PC-3 cells; 6 days treatment): most potent anti-invasive effects
growth inhibition in 3D (PC-3 cells; at 1.0 μM): without any growth inhibition
effects on the other cell lines at anti-invasive concentrations [1]: no noticeable effects on the other cell lines
organization of actin cytoskeleton in 3D spheroids [2]: effectively disrupted the organization of actin cytoskeleton

C=C(C)[C@@H]1CC[C@]2(C(=O)O)CC[C@]3(C)C(CCC4[C@@]5(C)CCC(=O)C(C)(C)C5CC[C@]43C)C12 (stereo partly drawn) [Compound 2, betulonic acid]
anti-invasive effects in 3D culture (in words) (PC-3 cells; 6 days treatment): did not show significant anti-invasive effects
response of Ep156T in 3D culture (Ep156T cell line): responded to betulonic acid

CN[C@@H]1C[C@H]2O[C@@](C)([C@@H]1OC)n1c3ccccc3c3c4c(c5c6ccccc6n2c5c31)C(=O)NC4 [staurosporine, reference compound]
organization of actin cytoskeleton in 3D spheroids [2]: affected the cytoskeleton in a comparable fashion

CNC(=O)c1ccc(N2C(=S)N(c3ccc(C#N)c(C(F)(F)F)c3)C(=O)C2(C)C)cc1F [enzalutamide, reference compound]
effect on morphometric measures (area, complexity, dead cells) (PC-3 cells; paclitaxel at 30 and 100 nM): no noticeable effect
efficacy in 3D LAPC-4 culture (dendrogram clusters) (LAPC-4): efficacy of all positive controls
among the effective treatments in 3D LNCaP organoids (LNCaP organoids): among the effective treatments
